According to patent EP1192131B1, “METHOD OF INHIBITING AMYLOID PROTEIN AGGREGATION AND IMAGING AMYLOID DEPOSITS USING ISOINDOLINE DERIVATIVES” (Warner-Lambert Company LLC, priority 1999, dated 2000):
Several values for one entry are separate records, joined by “and”; a condition that tells them apart may be missing. Identical values can stand only once. Like-named read-outs stand apart in the source and are kept apart here.

What was measured:
Aβ (1-42) = molecular target: T1, Aβ (1-42) (Homo sapiens, UniProt P05067); experiment: BATYM assay, Aβ (1-42) aggregation, Thioflavin T fluorescence; assay type: biochemical
T1 construct: Required Aβ (1-42)(California Peptide) was dried from its hexafluoroisopropanol (HFIP) stock solution; purchased California Peptide
Description: Required Aβ (1-42)(California Peptide) was dried from its hexafluoroisopropanol (HFIP) stock solution. The Aβ (1-42) was dissolved in dimethylsulfoxide (DMSO) and then mixed with phosphate buffered saline (PBS) (pH 7.4). The mixed Aβ (1-42) solution was filtered through a […] Omnipore membrane syringe filter (Millipore, Bedford, MA). The compound to be tested in DMSO (50 times concentrate) was put into each well (0.5 µL/well) of a 96-well plate. The Aβ (1-42) solution was added into each well (24.5 µL/well). The plate was centrifuged at 1,000 g for 5 minutes and incubated at 37°C for 1 day (Aβ 1-42; final concentration 100 µM).
After incubation Thioflavin T (ThT) (30 µM) solution in glycine-NaOH buffer (pH 8.5, 50 mM) was added into each well (250 µL/well), fluorescence was measured (ex. 440/20 nm; em 485/20 nm) using a fluorescence plate reader. The inhibitory activity was calculated as the reduction of fluorescence with the following formula: Inhibition (%) = {(F(Aβ)-F(Aβ+compound)}/{F(Aβ)-F (solvent+compound)} × 100 [formula]
The IC50s (concentration of test compound required to cause a 50% inhibition of aggregation) were calculated by a curve fitting program using the following equation. The data were obtained from two different experiments in triplicate. Inhibition (x) = 100-100/{1 + (x/IC50)^n }, [formula] x = concentration of tested compound (M), IC50 = (M), n = Hill coefficient.

Aβ(1-40) = Aβ(1-40) (Homo sapiens, UniProt P05067); experiment: BASSR (Beta-Amyloid Self-Seeding Radioassay), inhibition of self-seeded amyloid fibril growth; assay type: biochemical; design: Soluble Aβ(1-40) peptide (Bachem, Torrance, CA); purchased Bachem, Torrance, CA; details: 30 µM soluble Aβ (1-40) + 125I-labeled Aβ(1-40), 37°C, 3 to 5 hours, several values in a cell = repeat values, letter in parentheses = lot of compound (no letter = Lot P), (ppt), (v-shape) flags
Description: BASSR (Beta-Amyloid Self-Seeding Radioassay)
An assay for inhibitors of self-seeded amyloid fibril growth
Assay Buffer - 50 mM sodium phosphate, pH 7.5, 100 mM NaCl, 0.02% NaN3, 1 M urea (filter and store at 4°C)
Soluble Aβ(1-40) peptide (Bachem, Torrance, CA) - 2.2 mg/mL in deionized H2O (stored in aliquots at -20°C, keep on ice when thawed) will self-seed after 1 week storage. Typically, the solution should be stored until no lag phase is seen in the assay.
^125I-labeled Aβ (1-40) - 150K-350K cpm/µL in 100% acetonitrile -0.1% trifluoroacetic acid (TFA) -1% β-mercaptoethanol (aliquots stored at -20°C) ^125I-labeled Aβ(1-40) can be made in accordance with the procedure set forth by H. LeVine, III in Neurobiol. Aging, 16:755 (1995), which is hereby incorporated by reference, or this reagent may be purchased from Amersham, Arlington Heights, Illinois.
Final assay conditions: 30 µM soluble Aβ (1-40) in deionized water in assay buffer + 20-50K cpm ^125I-labeled Aβ(1-40) per assay. Compound to be tested is dissolved in dimethylsulfoxide (DMSO), typically 5-50 mM stock, such that the final concentration of DMSO is <1% v/v in the assay.
Assay: Reaction mixture for 50 assays (on ice) is comprised of 0.1-0.2 µL of ^125I-labeled A^125I-labeled Aβ(1-40) + 1 µL of soluble Aβ (1-40) + 13.5 µL assay buffer per assay. The following are the amounts of the components of the reaction mixture sufficient for 50 assay wells. 5-10 µL ^125I-labeled Aβ (1-40) dried down 675 µL assay buffer 50 µL soluble Aβ (1-40)
• 1) Prepare reaction mixture above by mixing components and storing on ice. • 2) Pipet 14.5 µL of reaction mixture into each of 50 wells on a polypropylene U-bottom 96-well microtiter plate on ice (Costar 3794). • 3) Add 1.7 µL, of diluted compound to be tested to each well in a column of eight, including solvent control. Serial 3-fold dilutions from 1 mM (100 µM final) in assay buffer -urea = 7 dilutions + zero. Each 96-well plate can therefore accommodate 11 samples + 1 Congo Red control (0.039-5 µM final in 2-fold steps). • 4) Seal the plate with aluminum film (Beckman 538619) and incubate for 10 minutes on ice. • 5) Raise the temperature to 37°C and incubate for 3 to 5 hours (depending on the lot of the peptide). • 6) Remove the aluminum film and add 200 µL/well of ice cold assay buffer with urea, collecting the radiolabeled fibrils by vacuum filtration through 0.2 µm pore size GVWP filters in 96-well plates (Millipore MAGV N22, Bedford, MA). Determine the radioactivity of the filters using standard methods well-known to those skilled in the art.

[1] = Aβ 1-42 final concentration 100 µM, 37°C, 1 day, letter in parentheses = lot of compound (no letter = Lot P), read-out: BATYM IC50
[2] = read-out: BASSR IC50 (converted)
[3] = read-out: BATYM IC50, Aβ 1-42 final concentration 100 µM, 37°C, 1 day, letter in parentheses = lot of compound (no letter = Lot P)

T1 sequence (P05067 672-713): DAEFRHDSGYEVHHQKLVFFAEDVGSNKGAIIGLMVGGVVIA
Aβ(1-40), sequence (P05067 672-711): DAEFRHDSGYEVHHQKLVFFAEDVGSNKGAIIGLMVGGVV

Row | Compound | IC50 (Aβ (1-42); [1]) | IC50 (Aβ(1-40); [2]) | IC50 (Aβ (1-42); [3]) [µM] | IC50 (Aβ(1-40); read-out: BASSR IC50)
1 | 2-[2-(3,4-Dimethylphenyl)-2,3-dihydro-1H-isoindol-5-ylamino]benzoic acid [Example 9] | 32.9 µM | > 100 µM | – | –
2 | 2-[2-(3-chlorophenyl)-2,3-dihydro-1H-isoindol-5-ylamino]benzoic acid [Example 7] | 37.3 µM | 90 µM and 80 µM and > 100 µM | – | –
3 | 2-[2-(4-chlorophenyl)-2,3-dihydro-1H-isoindol-5-ylamino]benzoic acid [Example 8] | 33.4 µM | > 100 µM | – | –
4 | COc1cc(Nc2ccc3c(c2)CN(c2ccc(Cl)c(Cl)c2)C3)c(C(=O)O)cc1[N+](=O)[O-] [Example 6, 2-[2-(3,4-Dichlorophenyl)-2,3-dihydro-1H-isoindol-5-ylamino]-4-methoxy-5-nitro-benzoic acid] | 13.5 µM and 14.6 µM | 7 µM (2×) and 12 µM and 4 µM and 5 µM | – | –
5 | O=C(O)c1ccccc1Nc1ccc2c(c1)CN(c1ccc(Cl)c(C(F)(F)F)c1)C2 [Example 10, 2-[2-(4-Chloro-3-trifluoromethylphenyl)-2,3-dihydro-1H-isoindol-5-ylamino]benzoic acid] | – | – | 34.6 | 100 µM and 58 µM and 55 µM and 70 µM
6 | Clc1ccc(N2Cc3ccc(Nc4ccccc4-c4nnn[nH]4)cc3C2)cc1Cl [Example 16, [2-(3,4-Dichloro-phenyl)-2,3-dihydro-1H-isoindol-5-yl]-[2-(1H-tetrazol-5-yl)-phenyl]-amine] | 29.5 µM | > 100 µM | – | –
7 | Nc1ccc(Nc2ccc3c(c2)CN(c2ccc(Cl)c(Cl)c2)C3)c(C(=O)O)c1 [Example 17, 5-Amino-2-[2-(3,4-dichloro-phenyl)-2,3-dihydro-1H-isoindol-5-ylamino]-benzoic acid] | 20 µM | 20 µM and 80 µM | – | –
8 | O=C(O)c1cc([N+](=O)[O-])ccc1Nc1ccc2c(c1)CN(c1ccc(Cl)c(C(F)(F)F)c1)C2 [Example 19, 2-[2-(4-Chloro-3-trifluoromethyl-phenyl)-2,3-dihydro-1H-isoindol-5-ylamino]-5-nitro-benzoic acid] | – | – | 12.8 | 1.1 µM and 1 µM
9 | O=C(O)c1cc([N+](=O)[O-])ccc1Nc1ccc2c(c1)CN(c1cccc(F)c1)C2 [Example 20, 2-[2-(3-Fluoro-phenyl)-2,3-dihydro-1H-isoindol-5-ylamino]-5-nitro-benzoic acid] | 11.5 µM | > 100 µM | – | –
10 | O=C(O)c1ccccc1Nc1ccc2c(c1)CN(c1cccc(F)c1)C2 [Example 22, 2-[2-(3-Fluoro-phenyl)-2,3-dihydro-1H-isoindol-5-ylamino]-benzoic acid] | 84 µM | 10 µM and 3 µM (2×) and 6.5 µM and 8 µM | – | –
11 | O=C(O)c1cc(F)ccc1Nc1ccc2c(c1)CN(c1ccc(Cl)c(Cl)c1)C2 [Example 23, 2-[2-(3,4-Dichloro-phenyl)-2,3-dihydro-1H-isoindol-5-ylamino]-5-fluoro-benzoic acid] | 34.1 µM | > 100 µM and 50 µM and 70 µM | – | –
12 | COc1cc(N2Cc3ccc(Nc4ccccc4C#N)cc3C2)cc(OC)c1OC [Example 25, 2-[2-(3,4,5-Trimethoxy-phenyl)-2,3-dihydro-1H-isoindol-5-ylamino]-benzonitrile] | > 100 µM | > 100 µM | – | –

Now from value to compound, other results behind:

Row | IC50 (Aβ (1-42); [1]) | IC50 (Aβ(1-40); [2]) | Compound | IC50 (Aβ (1-42); [3]) [µM] | IC50 (Aβ(1-40); read-out: BASSR IC50)
13 | 26.1 µM and 22.2 µM | 12 µM and 11 µM (2×) and 15 µM (3×) | O=C(O)c1ccccc1Nc1ccc2c(c1)CN(c1ccc(Cl)c(Cl)c1)C2 [Example 4, 2-[2-(3,4-Dichlorophenyl)-2,3-dihydro-1H-isoindol-5-ylamino]benzoic acid] | – | –
14 | 11.7 µM | > 100 µM | Cc1ccc(N2Cc3ccc(Nc4ccc([N+](=O)[O-])cc4C(=O)O)cc3C2)cc1C [Example 12, 2-[2-(3,4-Dimethyl-phenyl)-2,3-dihydro-1H-isoindol-5-ylamino]-5-nitro-benzoic acid] | – | –
15 | 32.5 µM | > 100 µM | O=C(O)c1cc([N+](=O)[O-])ccc1Nc1ccc2c(c1)CN(c1ccc(Cl)cc1)C2 [Example 15, 2-[2-(4-Chloro-phenyl)-2,3-dihydro-1H-isoindol-5-ylamino]-5-nitro-benzoic acid] | – | –
16 | 16.6 µM | 7 µM and 4 µM and 5 µM | O=C(O)c1cc([N+](=O)[O-])ccc1Nc1ccc2c(c1)CN(c1ccccc1)C2 [Example 18, 5-Nitro-2-(2-phenyl-2,3-dihydro-1H-isoindol-5-ylamino)-benzoic acid] | – | –
17 | 9.64 µM | 7 µM and 2.2 µM and 2 µM | COc1cccc(N2Cc3ccc(Nc4ccc([N+](=O)[O-])cc4C(=O)O)cc3C2)c1 [Example 21, 2-[2-(3-Methoxy-phenyl)-2,3-dihydro-1H-isoindol-5-ylamino]-5-nitro-benzoic acid] | – | –
18 | 64.9 µM | > 100 µM | COc1cccc(N2Cc3ccc(Nc4ccccc4C(=O)O)cc3C2)c1 [Example 26, 2-[2-(3-Methoxy-phenyl)-2,3-dihydro-1H-isoindol-5-ylamino]-benzoic acid] | – | –
